Measurements taken from BindingDB's records for doi:10.1021/jm500228a (Gilead Sciences, 2014).
pEC50: −log10 of the molar value.

Test: Inhibition of Flt3 in human MV411 cells assessed as assessed as proliferation after 72 hrs incubation by spectrophotometry

pEC50: 6.49
SMILES: c1cn2cc(-c3ccc4cn[nH]c4c3)nc(Nc3ccc(N4CCOCC4)cc3)c2n1
